Results: patent publication US6348214B1, “Materials and methods for making improved liposome compositions” (The Board of Trustees of the Illinois, priority 1996, dated 2002)
Ends that are not written are not given here.

Legend:
[1] = tested on: second-order arterioles in the cheek pouch of normotensive hamsters; assay: Arteriolar diameter in hamster cheek pouch microcirculation, normotensive hamsters; format: in vivo; settings: Example 1; 0.05 or 0.1 nmol VIP suffused for 7 minutes
Procedure: According to another experiment, normotensive hamsters were suffused onto the cheek pouch for 7 minutes with 0.1 nmol VIP-PEG-liposome composition which produced a significant increase in mean arterial diameter in situ. The results of this experiment are shown in FIG. 3 with data and significance indicated for results in FIGS. 2A and 2B above. […] Arterial diameter returned to baseline 9 minutes after suffusion was discontinued.
(§1) Adult male hamsters with spontaneous hypertension (n=21) and age- and genetically-matched normotensive controls (n=20) were purchased from the Canadian Hybrid Farns, Halls Harbor, NS, Canada. In preparation, the animals were anesthetized interperitoneally with sodium pentobarbital (6 mg/100 g body weight) and a tracheostomy was performed to facilitate spontaneous breathing. The left femoral vein was cannulated to inject supplemental anesthesia (2 to 4 mg per 100 g body weight per hour) during the experiment. A catheter was inserted into the left femoral artery to record systemic arterial pressure and heart rate. Body temperature was monitored to maintain a constant 37-38° C. throughout the experiment using a heating pad.
(§2) In order to visualize microcirculation of the cheek pouch, previously described methods were employed [Gao, et al., Life Sci. 64: PL274-PL252 (1994); Mayhan and Joyner, Microvasc. Res. 28: 159-179 (1984); Mayban and Rubinstein, Biochem. Biophys. Res. Commun. 184:1372-1377 (1992); Raud, Acta Physiol. Scand. Suppl. 578:1-58 (1989); Rubinstein and Mayban, J. Lab. Clin. Med. 25:313-318 (1995); Rubinstein, et al., Am. J. Physiol. 261 (Heart Circ. Physiol. 30):111913-111918 (1991); and Suzuki, et al., Life Sci. 57:1451-1457 (1995)]. Briefly, the left cheek pouch was spread over a small plastic baseplate, and an incision was made in the outer skin to expose, the cheek pouch membrane. […]
(§3) Change in arteriolar diameter was determined as follows. […] The inner wall diameter of secondorder arterioles in the cheek pouch was measured from the video display of the microscope image using a videomicrometer (VIA-100, Boeckeler Instruments, Tucson, Ariz.). […]

neutrophil = assay: Neutrophil chemotaxis in two chamber apparatus (response to fmlp); format: cell-based; settings: FIG. 5
Source text: Finally, as another experiment the effect of VIP-PEG-liposomes on neutrophil chemotaxis was examined using a two chamber apparatus routinely employed for in vitro analysis of chemotaxis. Neutrophil migration from the upper chamber into the lower chamber in response to formyl-methionyl-leucyl-phenylalanyl (fmlp) peptide in the lower chamber was initially established at a baseline control.

[2] = tested on: hamsters with spontaneous hypertension; assay: Mean arterial pressure after intravenous administration, hamsters with spontaneous hypertension; format: in vivo, hamster
Source text: The provisional application further disclosed that a bolus intravenous injection of 1.0 nmol VIP-PEG-liposome compound acted to decrease mean arterial pressure (MAP) in hamsters with spontaneous hypertension. The results are reproduced herein as FIGS. 2A and 2B; FIG. 2A showing the actual decrease on arterial pressure and FIG. 2B showing the percent change. Data are mean values ± one standard error of the mean; an asterisk indicates statistically significant values compared to control with p value less than 0.05.
In examining the duration and efficacy of VIP in the two liposome preparations on mean arterial pressure, the following procedure was carried out. Adult mate hamsters with spontaneous hypertension (n=12) were obtained from the Canadian Hybrid Farms (Hall Harbour, Nova Scotia, Canada). Approximately 500 μl each of three test preparations, liposomes prepared by the second method above, VIP in aqueous solution, and liposomes without VIP, were injected administered over the course of 1 minute in the femoral vein. Continuous anesthesia of the animals limited the duration of the experiment to 6 hours.
Adult male golden Syrian hypertensive hamsters were prepared for intravital microscopy, cheek pouch microcirculation observed and measured, and mean arterial pressure determined, each technique as described above. […]

[3] = tested on: second-order arterioles in the cheek pouch of hamsters with spontaneous hypertension; assay: Arteriolar diameter in hamster cheek pouch microcirculation, hamsters with spontaneous hypertension; format: in vivo
Procedure: as §1, §2, §3
VIP alone or encapsulated in liposomes was suffused for 7 minutes at a concentration of VIP of either 0.05 or 0.1 nmol peptide, and more than 30 minutes elapsed between subsequent applications of the peptide. Changes in arteriolar diameter before, during, and after topical application of VIP were determined as outlined above. […]

[4] = tested on: second-order arterioles in the cheek pouch of normotensive hamsters; settings: 0.1 nmol VIP dissolved in saline; Suzuki et al. 1995; cited from earlier work

Compound	effect on arteriolar diameter [1]	time after suffusion was stopped until return to baseline / persistence of vasodilation [1]	time to maximal response from start of suffusion [1]	neutrophil migration against fmlp in the lower chamber (neutrophil; test substance added with neutrophils in the upper chamber)	neutrophil migration against test substance in the lower chamber (neutrophil; test substance in lower chamber, no fmlp)	effect on mean arterial pressure ([2]; Example 3, injected in the femoral vein over 1 minute)	effect on mean arterial pressure ([2]; Example 5, hypertensive hamsters)	effect on arteriolar diameter ([3]; Example 1, 0.05 or 0.1 nmol VIP suffused for 7 minutes)	effect on arteriolar diameter ([3]; Example 5, hypertensive hamsters, suffusion for 7 minutes)	increase in arteriolar diameter [4]	vasorelaxation, hypertensive versus normotensive hamsters ([3]; Example 1, endothelium independent vasodilator control in the cheek pouch)
vasoactive intestinal peptide (HSDAVFTDNYTRLRKQMAVKKYLNSILN; ends and bridges not checked; UniProt P01282 125-152, looked up) [VIP]	significant vasodilation	≤ 1 min	≤ 4 min	significant migration was observed	negligible	No significant effect on mean arterial pressure	no effect	no significant effects on arteriolar diameter	no effects	approximately 10%	
O=[N+]([O-])OCC(CO[N+](=O)[O-])O[N+](=O)[O-] [nitroglycerin]											vasorelaxation of similar magnitude in both groups
